Assay results reported in US20080051400A1, “Methods for treating or preventing anemia or thrombocytopenia using a triheterocyclic compound” (Gemin X Biotechnologies Inc., priority 2006, published 2008).

Experiments:
[1] = test system: patients having myelodysplastic syndromes (MDS); assay: Multi-center, open label, dose escalation study in patients having myelodysplastic syndromes (MDS); format: in vivo, human
Procedure: In a multi-center, open label, dose escalation study, a group of eight patients having myelodysplastic syndromes (MDS) received intravenous doses of 7-40 mg/m^2 of the mesylate salt of Compound 1 administered as a 24-hour infusion every two weeks. These infusions were administered over a period of several weeks to several months, the first cycle of infusion was administered in a clinical unit but the subsequent four cycles were administered in the ambulatory setting using portable infusion pumps.

[2] = test system: patients having chronic lymphocytic leukemia (CLL); assay: Multi-center, double-blind, dose-ranging study in patients having chronic lymphocytic leukemia (CLL); format: in vivo, human
Procedure: In a multi-center, double-blind, dose-ranging study, two groups of patients having chronic lymphocytic leukemia (CLL) received intravenous doses of either 3.5-14 mg/m^2 of the mesylate salt of Compound 1 administered as a 1-hour infusion, or a 20-40 mg/m2 dose via a 3-hour infusion. These infusions were administered over a period of several weeks to several months.

Q: Which “patients who showed hematological improvement in hemoglobin levels” value ([1]; MDS patients, mesylate salt i.v. 7-40 mg/m^2 as 24-hour infusion every two weeks, FIG. 2A) does the source give for COC1=CC(c2cc3ccccc3[nH]2)=N/C1=C\c1[nH]c(C)cc1C [Compound 1] here?
A: Its value is “Three out of eight patients”.

Q: What about the “patients who showed platelet count elevation” value ([1]; MDS patients, mesylate salt i.v. 7-40 mg/m^2 as 24-hour infusion every two weeks, FIG. 2B, patient 3 was not thrombocytopenic at start) of the same compound?
A: Its value is “these three patients showed platelet count elevation”.

Q: What about the “patients becoming transfusion independent (hemoglobin responders)” value ([1]; among the three MDS patients with hemoglobin improvement, FIG. 2A) of the same compound?
A: The value was “two of the patients”.

Q: What about the “patients becoming transfusion independent (platelet responders)” value ([1]; among the three MDS patients with platelet count elevation, FIG. 2B) of the same compound?
A: The value was “one of the patients”.

Q: What about the “anemic patients who showed significant hemoglobin elevation” value ([2]; CLL patients with initial hemoglobin counts of less than 11 g/dL, mesylate salt i.v. 3.5-40 mg/m^2) of the same compound?
A: The value was “three out of eleven anemic patients”.

Q: And the “patients having thrombocytopenia who showed significant increases in platelet count” value ([2]; CLL patients with initial platelet counts less than 150×10^9/L, mesylate salt i.v. 3.5-14 mg/m^2 as 1-hour infusion or 20-40 mg/m2 as 3-hour infusion, over several weeks to several months)?
A: The value was “Four patients out of fourteen patients”.

Q: And the “patients becoming transfusion independent (hemoglobin responders)” value ([2]; among the three anemic CLL patients with hemoglobin elevation, FIG. 1)?
A: The value was “two of the patients”.

Q: What about the “increase in platelet count in responding patients” value ([2]; four responding thrombocytopenic CLL patients, mesylate salt i.v. 3.5-40 mg/m^2) of the same compound?
A: The value was “over 50%”.
